{"source": "patent US10881749B2", "about": "“Probes and methods of imaging a bacterial infection” (The Board of Trustees of the Leland Stanford Junior …, priority 2015, dated 2021)", "key": {"[1]": {"tested_on": "E. coli", "experiment": "PET/CT imaging of E. coli infection in thigh muscle of nude mice", "assay_type": "in vivo", "conditions": "for route of clearance: mice, intravenous (tail vein)", "procedure": "FIGS. 1.1A-B show PET/CT scan of a mouse that had been injected with 200 μCi of 6″-[^18F]-fluoromaltotriose. The arrow indicates the site of infection.\n(§1) 6″-[^18F]-fluoromaltotriose (FIG. 1.1B) was synthesized. The uptake of 6″-[^18F]-fluoromaltotriose was evaluated in E. coli. […] The uptake in E. coli could also be blocked by a co-incubation with 1 mM of cold maltose (98% blocking, p<0.0003), the natural substrate of the transporter, confirming that the tracer was a substrate of the bacterial maltose transporter. 10^8 colony-forming units (CFU) of E. coli was then inoculated in the right thigh muscle of nude mice (n=4). […] The route of clearance of the tracer is renal which makes it suitable for clinical translation."}, "[2]": {"experiment": "Biodistribution and pharmacokinetics in mice", "assay_type": "in vivo", "conditions": "FIG. 3.1", "from_the_text": "FIG. 3.1 illustrates a graph comparing the biodistribution and pharmacokinetics of 6-fluoromaltose and 6″-fluoromaltotriose in mice.\nFIG. 3.1, example 3, illustrates a graph comparing the biodistribution and pharmacokinetics of 6-fluoromaltose and 6″-Fluoromaltotriose in mice."}, "[3]": {"tested_on": "E. coli", "experiment": "Uptake of tracer in E. coli bacterial culture, with maltose competition", "assay_type": "cell-based, Escherichia coli", "conditions": "for blocking of uptake in E. coli by co-incubation with cold maltose: co-incubation with 1 mM of cold maltose, p<0.0003; for accumulation (uptake) of tracer in E. coli over time: in vitro bacterial culture", "procedure": "FIG. 2.1 is a graph showing uptake of 6″-[^18F]fluoromaltotriose in vitro in E coli at 15 minutes, 30 minutes, and 30 minutes with 1 mM of maltose.\nas §1, with “(n=4). 24 h later, 200 uCi of the 6″-[^18F]-fluoromaltotriose was administered via tail vein and dynamic PET/CT scans were obtained over the course of one hour.” for “(n=4).”\nIn regard to FIG. 5.1A, 6″-[^18F]fluoromaltotriose was synthesized from precursor per-O-acetyl-6″-deoxy-6″-nosyl-maltotriose (1). Precursor 1 was prepared from per-O-acetyl-6″-hydroxymaltotriose via a nosylation reaction. This method utilizes the reaction between the leaving group nosylate in precursor 1 and anhydrous [^18F]KF/Kryptofix 2.2.2 in acetonitrile at 85° C. for 15 min to give per-O-acetyl-6″-deoxy-6″-[^18F]fluoromaltotriose (2). Basic hydrolysis of the acetyl protecting groups in 2 yielded 6″-[^18F]fluoromaltotriose (3). Also, cold 6″-fluoromaltotriose (for comparison with 6″ [^18F]fluoromatotriose) was prepared from per-O-acetyl-6-hydroxymaltotriose via a DAST reaction followed by a basic hydrolysis. Escherichia-coli uptake of 6″-[^18F]fluoromaltotriose was evaluated in bacterial culture.\nWe have successfully synthesized 6″-[^18F]fluoromaltotriose in 4-7% radiochemical yield (decay corrected) with 95% chemical and radio-chemical purities. Total synthesis time was 125 min. […] This observation is consistent with 6″-[^18F]fluoromaltotriose being recognized and transported by the bacteria in a manner similar to maltose."}, "[4]": {"conditions": "listed as 6″-[^18F]fluoromaltotriose"}}}
{"smiles": "OC[C@H]1O[C@H](O[C@H]2[C@H](O)[C@@H](O)C(O)O[C@@H]2CO)[C@H](O)[C@@H](O)[C@@H]1O[C@H]1O[C@H](C[18F])[C@@H](O)[C@H](O)[C@H]1O", "note": "(some centres unmarked) [6″-[^18F]-fluoromaltotriose, 6″-[^18F]fluoromaltotriose]", "values": [{"measurement": "imaging of viable bacteria", "setting": "[1]; 2 hours after implantation (FIG. 1.2)", "result": "can image 10^8 CFU of viable bacteria"}, {"measurement": "accumulation of tracer at the site of infection (PET/CT image)", "setting": "[1]; PET/CT image at 1 hour, 24 h after inoculation", "result": "clearly accumulated in the infected leg"}, {"measurement": "uptake in infected muscle relative to contra-lateral muscle", "setting": "[1]; ROI analysis, PET/CT, p<0.05", "result": 3.1, "unit": "fold"}, {"measurement": "route of clearance", "setting": "[1]", "result": "renal"}, {"measurement": "route of clearance", "setting": "[1]; [4]", "result": "predominantly renal clearance"}, {"measurement": "average uptake in infected muscle (ROI analysis)", "setting": "[1]; nude mice, 10^8 CFU E. coli in right thigh muscle, 24 h later 200 uCi via tail vein, PET/CT at 1 hour, mean±SD", "result": "4.7±1.3", "unit": "% ID/g"}, {"measurement": "tissue uptake as compared to first generation tracer 6-fluoromaltose", "setting": "[2]", "result": "reduced blood, heart, liver, lung and muscle uptake"}, {"measurement": "blocking of uptake in E. coli by co-incubation with cold maltose", "setting": "[3]", "result": 98, "unit": "%"}, {"measurement": "blocking of uptake in E. coli by co-incubation with cold maltose", "setting": "[3]; [4]", "result": 90, "unit": "%"}, {"measurement": "accumulation (uptake) of tracer in E. coli over time", "setting": "[3]", "result": "increased over time"}, {"measurement": "accumulation (uptake) of tracer in E. coli over time", "setting": "[3]; listed as 6″-[^19F]fluoromaltotriose", "result": "time dependent"}]}
